Test results reported in US20250332143A1, “COMPOSITION COMPRISING ALOX5 INHIBITOR FOR PREVENTING OR TREATING SARCOPENIA” (PLUTO Inc., priority 2022, published 2025).

Legend:
[1] = test system: Dex-treated C2C12 myotubes; assay: Dex-induced myotube atrophy, myosin heavy chain immunostaining, myotube diameter; type: cell-based, mouse; settings: 10 μM Dex 24 h; for diameter of muscle fibers (C2C12 myotubes): zileuton 10 µM, wedelolactone 20 μM (FIGS. 2, 3)
Method: (§1) C2C12 murine skeletal muscle myoblasts were obtained from Koram Biotech (Republic of Korea). The cells were maintained in DMEM growth medium supplemented with 10% FBS, 1% penicillin, and streptomycin. When myoblasts proliferated to approximately 90%, they were differentiated into muscle fibers by treating them with DMEM differentiation medium supplemented with 2% HS, 1% penicillin, and streptomycin for 96 hours. Differentiated muscle fibers were treated with 10 μM Dex for 24 hours to induce sarcopenia. To evaluate the degree of differentiation of muscle cells, differentiating myoblasts were treated with the corresponding compound in differentiation medium for 24 or 48 hours.
Muscle fibers were stained using immunochemical staining using myosin heavy chain antibody. Specifically, the muscle fibers were rinsed three times with PBS and then fixed with a 3.7% formaldehyde solution. After rinsing with PBS, a transparency process was performed with 0.2% TritonX-100 solution, and additional rinsing was performed with PBS. They were blocked with 1% bovine serum albumin solution (1% BSA in PBS-T) and incubated with primary antibody overnight at 4° C. After washing with PBS, the secondary antibody was treated for 1 hour. Afterwards, the myotubes were counterstained with 1 μM DAPI in PBS. Fluorescence images of stained myotubes in five different areas were obtained using a DMI 3000 B microscope (Leica, Germany) and analyzed using ImageJ 1.52 software (National Institutes of Health, Bethesda, MD, USA). Myotubes were classified as myosin heavy chain positive cells containing four or more nuclei, and the diameter of muscle fibers containing four or more nuclei was measured.

Atrogin-1 and MuRF-1 = assay: qPCR of muscle atrophy regulators in Dex-treated C2C12 myotubes; type: cell-based, mouse
Method: as §1
For quantitative real-time PCR, transcript levels of genes of interest were analyzed using the StepOnePlus real-time PCR system (Applied Biosystems, UK). Total RNA was reverse transcribed to prepare cDNA using AccuPower® RT PreMix (Bioneer Corporation). The obtained cDNA was subjected to real-time PCR according to the manufacturer's instructions with the following changes. PCR was performed in triplicate in a total volume of 20 μL 2× Power SYBR Green PCR Master Mix (Enzynomics, Republic of Korea) containing 200 nM (final concentration) of each specific primer and 1 μL of cDNA synthesized from 1 μg of total RNA. PCR amplification consisted of incubating the mixture at 95° C. for 10 minutes, followed by 40 cycles of denaturation, annealing, and extension. Denaturation was performed at 95° C. for 15 s, annealing was performed at 60° C. for 1 min, and extension was performed at 72° C. for 20 s with fluorescence detection at 72° C. after each cycle. After the final cycle, melting point analysis of all samples was performed within the range of 60 to 95° C. using continuous fluorescence detection. Specific cDNA samples were included in each run and used as reference material for comparison between runs. The expression level of GAPDH was used to calculate and normalize the expression levels of all other genes. Results were expressed as relative expression levels for each gene. The synthesized cDNA was amplified by quantitative real-time PCR (qRT-PCR) or standard PCR.

Compound	myotube atrophy in Dex-treated myotubes ([1]; C2C12 myotubes)	Atrogin-1 expression (mRNA, qPCR) (Atrogin-1 and MuRF-1)	diameter of muscle fibers (C2C12 myotubes) [1]	MuRF-1 expression (mRNA, qPCR) (Atrogin-1 and MuRF-1)
CCCCC/C=C\C[C@@H](O)/C=C/C=C/C=C\[C@@H](O)CCCC(=O)O [LTB4, Leukotriene B4]	did not affect	did not affect	–	–
COc1cc(O)c2c(c1)oc(=O)c1c3cc(O)c(O)cc3oc21 [wedelolactone, Wedelolactone]	–	decreased	recovered	decreased
CC(c1cc2ccccc2s1)N(O)C(N)=O (centres unmarked) [zileuton, Zileuton]	–	decreased	recovered	decreased
